Measurements reported in patent US20100311714A1, “1H-IMIDAZO[4,5-c]QUINOLINONE COMPOUNDS” (priority 2009, published 2010).
≈ marks a conversion by molar mass, not a printed value. Like-named read-outs stand apart in the source and are kept apart here.

How the values were obtained:
[1] = biological target: T1, mTOR (Homo sapiens, UniProt P42345); test: Biochemical assay for m-TOR by TR-FRET
T1 construct: purchased Invitrogen Corporation (Carlsbad/Calif., USA) PV4753
Method: Biochemical Assay for m-TOR by TR-FRET.
Assay components are purchased from Invitrogen Corporation (Carlsbad/Calif., USA): GFP-4EBP1 (Cat. No. PV4759), Tb3+-α-p4EBP1 [pThr46] Antibody (Cat. No. PV4757), proprietary TR-FRET dilution buffer (Cat. No. PV3574), mTOR protein (Cat. No. PV4753).
50 nL of compound dilutions (final concentration of 10, 3.0, 1.0, 0.3, 0.1, 0.03, 0.01 and 0.003 μM) are dispensed onto black 384-well low volume non-binding polystyrene (Cat. No. NBS#3676, Corning, Lowell/Mass., USA). Then 5 μL of ATP (8 μM final concentration) and GFP-4EBP1 (400 nM final concentration) with 5 μL mTOR proteins (0.5 nM final concentration) are incubated at rt. The standard reaction buffer for the TR-FRET mTOR assay contained 50 mM HEPES pH 7.5, 10 mM MnCl2, 50 mM NaCl, 1 mM EGTA, 1 mM DTT. Reactions were stopped with 10 μL of a mixture of EDTA containing the Tb3+-α-p4EBP1[pT46] detection Ab (0.5 nM) in TR-FRET dilution buffer (proprietary to IVG). Plates are read 15 mins later in a Synergy2 reader using an integration time of 0.2 seconds and a delay of 0.1 seconds. Control for the 100% inhibition of the kinase reaction is performed by replacing the mTOR kinase by the standard reaction buffer. The control for the 0% inhibition is given by the solvent vehicle of the compounds (90% DMSO in H2O). A standard compound is used as a reference compound and included in all assay plates in the form of 16 dilution points in duplicate.

[2] = High-throughput equilibrium solubility at pH 6.8; type: physicochemical; settings: pH 6.8, aqueous buffer, thermodynamic from solid; read-out: HT-Eq Sol/pH 6.8
Source text: The physicochemical properties of relevance for the absorption of the compound, such as the solubility and the membrane permeability, especially at a pH close to neutral pH can be measured using the procedure as described by L. ZHOU et al. in JOURNAL OF PHARMACEUTICAL SCIENCES, VOL. 96, NO. 11, p. 3052-3071 (2007) for the solubility at pH 6.8 and the procedure as described by F. Wohnsland and B. Faller in Journal of Medicinal Chemistry Vol 44, p. 923-930 (2001) for the Parallel Artificial Membrane Permeability Assay (PAMPA) at pH 6.8.

[3] = biological target: T2, PI3K beta (Homo sapiens, UniProt P42338); test: PI3K beta kinase assay (Kinase-Glo luminescence); type: biochemical
T2 construct: for the full-length p110-b subunit are generated and fused by overlapping PCR; His tag (C); made in house; host or cells: baculovirus BV949; Tn5 (Trichoplusia ni) or TiniPro insect cells
Method: In a more preferred assay, the kinase reaction is performed in a final volume of 10 μL per well of a low volume non binding CORNING, 384 well black plate (Cat. No. #3676). The final concentrations of ATP and phosphatidyl inositol (PI) in the assay are 1 μM and 10 μg/mL respectively. The reaction is started by the addition of ATP.
The components of the assay are added per well as follows:
50 nL test compounds in 90% DMSO per well, in columns 1-20, 8 concentrations (⅓ and 1/3.33 serial dilution step) in single. • Low control: […] of 90% DMSO in half the wells of columns 23-24 (0.45% in final). • High control: 50 nL of reference compound (e.g. compound of Example 7 in WO 2006/122806) in the other half of columns 23-24 (2.5 μM in final). • Standard: 50 nL of reference compound as just mentioned diluted as the test compounds in columns 21-22 • 20 mL ‘buffer’ are prepared per assay: • 200 μL of 1M TRIS HCl pH7.5 (10 mM in final) • 60 μL of 1M MgCl2 (3 mM in final) • 500 μL of 2M NaCl (50 mM in final) • 100 μL of 10% CHAPS (0.05% in final) • 200 μL of 100 mM DTT (1 mM in final) • 18.94 mL of nanopure water • 10 mL ‘PI’ are prepared per assay: • 200 μL of 1 mg/ml L-alpha-Phosphatidylinositol (Liver Bovine, Avanti Polar Lipids Cat. No. 840042C MW=909.12) prepared in 3% OctylGlucoside (10 μg/ml in final) • 9.8 mL of ‘buffer’ • 10 mL ‘ATP’ are prepared per assay: • 6.7 μL of 3 mM stock of ATP giving a final concentration of 1 μM per well • 10 mL of ‘buffer’ • 2.5 mL of each PI3K construct are prepared per assay in ‘PI’ with the following final concentration: • 10 nM PI3K alfa EMV B1075 • 25 nM beta EMV BV949 • 10 nM delta EMV BV1060 • 150 nM gamma EMV BV950 • 5 μL of ‘PI/PI3K’ are added per well. • 5 μl ‘ATP’ are added per well to start the reaction. • The plates are then incubated at room temperature for 60 minutes (alfa, beta, delta) or 120 minutes (gamma). • The reaction is terminated by the addition of 10 μL Kinase-Glo (Promega Cat. No. #6714). • The assay plates are read after 10 minutes in Synergy 2 reader (BioTek, Vermont USA) with an integration time of 100 milliseconds and sensitivity set to 191. • Output: The High control is around 60′000 counts and the Low control is 30′000 or lower • This luminescence assay gives a useful Z′ ratio between 0.4 and 0.7
PI3Kβ BV-949 p85(iSH2)-Gly linker-r 110b(full-length)-C-term His Tag
PI3K beta is purified in two chromatographic steps: immobilized metal affinity chromatography (IMAC) on a Ni Sepharose resin (GE Healthcare) and gel filtration (GFC) utilizing a Superdex 200 26/60 column (GE Healthcare). All buffers are chilled to 4° C. and lysis is performed chilled on ice. Column fractionation is performed rapidly at room temperature.
IC50 is determined by a four parameter curve fitting routine that comes along with “excel fit”. A 4 Parameter logistic equation is used to calculate IC50 values (IDBS XLfit) of the percentage inhibition of each compound at 8 concentrations (usually 10, 3.0, 1.0, 0.3, 0.1, 0.030, 0.010 and 0.003 μM). Alternatively, IC50 values are calculated using idbsXLfit model 204, which is a 4 parameter logistic model.

T1 sequence (P42345 1360-2549 limits assumed): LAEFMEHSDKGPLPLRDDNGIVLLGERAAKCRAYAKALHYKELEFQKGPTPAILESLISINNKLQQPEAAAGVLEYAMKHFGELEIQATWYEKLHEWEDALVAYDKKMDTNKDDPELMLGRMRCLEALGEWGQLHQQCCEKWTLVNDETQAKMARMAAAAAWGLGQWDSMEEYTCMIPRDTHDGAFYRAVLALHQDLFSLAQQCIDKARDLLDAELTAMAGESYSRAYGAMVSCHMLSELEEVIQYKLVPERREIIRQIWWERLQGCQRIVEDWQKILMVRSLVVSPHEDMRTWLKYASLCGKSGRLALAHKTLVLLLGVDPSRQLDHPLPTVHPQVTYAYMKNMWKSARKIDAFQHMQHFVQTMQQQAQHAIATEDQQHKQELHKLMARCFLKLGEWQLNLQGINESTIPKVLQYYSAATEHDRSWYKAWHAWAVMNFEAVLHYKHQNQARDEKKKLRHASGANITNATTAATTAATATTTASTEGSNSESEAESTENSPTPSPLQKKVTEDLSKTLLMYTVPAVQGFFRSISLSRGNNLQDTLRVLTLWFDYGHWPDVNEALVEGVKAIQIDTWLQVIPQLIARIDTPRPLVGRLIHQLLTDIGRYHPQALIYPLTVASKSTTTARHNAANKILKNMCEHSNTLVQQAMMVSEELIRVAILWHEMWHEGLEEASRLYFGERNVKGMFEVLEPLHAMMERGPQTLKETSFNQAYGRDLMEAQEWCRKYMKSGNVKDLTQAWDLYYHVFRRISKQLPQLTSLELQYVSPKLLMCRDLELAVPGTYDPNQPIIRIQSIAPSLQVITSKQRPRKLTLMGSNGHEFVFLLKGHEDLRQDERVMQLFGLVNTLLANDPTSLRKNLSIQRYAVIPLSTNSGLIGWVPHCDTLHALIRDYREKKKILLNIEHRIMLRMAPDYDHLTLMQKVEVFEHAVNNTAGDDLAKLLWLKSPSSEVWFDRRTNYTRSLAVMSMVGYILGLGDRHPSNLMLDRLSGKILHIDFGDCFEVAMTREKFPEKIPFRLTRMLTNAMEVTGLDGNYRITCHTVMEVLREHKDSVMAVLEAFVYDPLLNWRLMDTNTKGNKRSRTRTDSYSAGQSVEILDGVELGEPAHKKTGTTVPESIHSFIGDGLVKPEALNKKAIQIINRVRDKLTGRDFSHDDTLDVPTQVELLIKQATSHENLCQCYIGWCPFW
T2 sequence (P42338 with tags, fused parts or gaps limits assumed): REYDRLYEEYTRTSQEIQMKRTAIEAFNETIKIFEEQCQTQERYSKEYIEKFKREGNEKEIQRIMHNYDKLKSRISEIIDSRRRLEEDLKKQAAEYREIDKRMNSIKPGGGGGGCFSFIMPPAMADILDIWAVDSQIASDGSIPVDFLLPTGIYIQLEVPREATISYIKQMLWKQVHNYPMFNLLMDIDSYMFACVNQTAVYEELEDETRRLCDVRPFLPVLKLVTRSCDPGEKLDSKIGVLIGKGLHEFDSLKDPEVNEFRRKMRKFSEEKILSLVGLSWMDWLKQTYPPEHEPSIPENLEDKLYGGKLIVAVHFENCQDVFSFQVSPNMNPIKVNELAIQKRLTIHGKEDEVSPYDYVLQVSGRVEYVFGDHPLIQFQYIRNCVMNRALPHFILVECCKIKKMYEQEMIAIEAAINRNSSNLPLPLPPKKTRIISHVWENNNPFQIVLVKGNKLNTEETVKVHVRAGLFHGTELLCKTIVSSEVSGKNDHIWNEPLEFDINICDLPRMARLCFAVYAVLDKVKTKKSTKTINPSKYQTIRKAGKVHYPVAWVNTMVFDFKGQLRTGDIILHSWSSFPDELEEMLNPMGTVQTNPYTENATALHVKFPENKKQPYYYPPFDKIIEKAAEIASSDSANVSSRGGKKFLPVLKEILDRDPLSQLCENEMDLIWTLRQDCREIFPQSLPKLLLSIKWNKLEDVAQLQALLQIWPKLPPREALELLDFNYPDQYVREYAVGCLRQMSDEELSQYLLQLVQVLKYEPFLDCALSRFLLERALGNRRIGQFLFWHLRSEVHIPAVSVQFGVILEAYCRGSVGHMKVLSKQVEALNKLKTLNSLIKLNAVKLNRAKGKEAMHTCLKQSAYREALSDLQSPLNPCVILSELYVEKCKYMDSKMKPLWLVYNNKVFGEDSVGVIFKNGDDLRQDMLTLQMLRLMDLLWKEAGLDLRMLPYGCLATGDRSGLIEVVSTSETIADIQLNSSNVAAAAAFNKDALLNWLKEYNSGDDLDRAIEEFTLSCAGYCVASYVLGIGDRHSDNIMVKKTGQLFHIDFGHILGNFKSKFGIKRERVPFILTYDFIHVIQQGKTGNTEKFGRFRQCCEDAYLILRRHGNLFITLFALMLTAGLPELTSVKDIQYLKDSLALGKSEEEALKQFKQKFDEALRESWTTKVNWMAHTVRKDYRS

**Q.** For Cc1cccnc1-n1c(=O)n(C)c2cnc3ccc(-c4ccc(C(N)=O)cc4)cc3c21 [Example 3.3, 4-[3-Methyl-1-(3-methyl-pyridin-2-yl)-2-oxo-2,3-dihydro-1H-imidazo[4,5-c]quinolin-8-yl]-benzamide], which IC50 ([1]; read-out: mTOR/IC50) is on record?
**A.** 345 nM

**Q.** And the solubility thermodynamic [2]?
**A.** 5 µg/mL (≈ 12.2 µM)

**Q.** For Cc1ncccc1-n1c(=O)n(C)c2cnc3ccc(-c4ccc(C(N)=O)cc4)cc3c21 [Example 2.3, 4-[3-Methyl-1-(2-methyl-pyridin-3-yl)-2-oxo-2,3-dihydro-1H-imidazo[4,5-c]quinolin-8-yl]-benzamide], which IC50 ([1]; read-out: mTOR/IC50) is on record?
**A.** 11 nM

**Q.** What about the solubility thermodynamic [2] of the same molecule?
**A.** 15 µg/mL (≈ 36.6 µM)

**Q.** And the IC50 ([3]; read-out: PI3Kbeta/IC50)?
**A.** 577 nM

**Q.** With CNC(=O)c1ccc(-c2ccc3ncc4c(c3c2)n(-c2ncccc2C)c(=O)n4C)cc1 [Example 3.5, N-Methyl-4-[3-methyl-1-(3-methyl-pyridin-2-yl)-2-oxo-2,3-dihydro-1H-imidazo[4,5-c]quinolin-8-yl]-benzamide] as the molecule, how does the IC50 ([1]; read-out: mTOR/IC50) read?
**A.** 331 nM

**Q.** And the solubility thermodynamic [2]?
**A.** 10 µg/mL (≈ 23.6 µM)

**Q.** Which results are given for COc1ncc(-c2ccc3ncc4c(c3c2)n(-c2ccc(N3CC(O)C3)nc2C)c(=O)n4C)c(OC)n1 [Example 29.6, 8-(2,4-Dimethoxy-pyrimidin-5-yl)-1-[6-(3-hydroxy-azetidin-1-yl)-2-methyl-pyridin-3-yl]-3-methyl-1,3-dihydro-imidazo[4,5-c]quinolin-2-one]?
**A.** IC50 ([1]; read-out: EPK_mTOR/IC50): 11 nM; solubility thermodynamic [2]: 15 µg/mL (≈ 30 µM); IC50 ([3]; read-out: EPK_PI3Kbeta/IC50): 59 nM

**Q.** Which IC50 ([1]; read-out: mTOR/IC50) does the source give for Cc1ncccc1-n1c(=O)n(C)c2cnc3ccc(-c4ccc(N)nc4)cc3c21 [Example 2.7, 8-(6-Amino-pyridin-3-yl)-3-methyl-1-(2-methyl-pyridin-3-yl)-1,3-dihydro-imidazo[4,5-c]quinolin-2-one] here?
**A.** 18 nM

**Q.** What about the solubility thermodynamic [2] of the same molecule?
**A.** 17 µg/mL (≈ 44.5 µM)

**Q.** What about the IC50 ([3]; read-out: PI3Kbeta/IC50) of the same molecule?
**A.** 133 nM

**Q.** For COc1nc(N2CCNCC2)ccc1-n1c(=O)n(C)c2cnc3ccc(-c4cnc(N)c(C(F)(F)F)c4)cc3c21 [Example 9.2, 8-(6-Amino-5-trifluoromethyl-pyridin-3-yl)-1-(2-methoxy-6-piperazin-1-yl-pyridin-3-yl)-3-methyl-1,3-dihydro-imidazo[4,5-c]quinolin-2-one], which solubility thermodynamic [2] is on record?
**A.** 13 µg/mL (≈ 23.6 µM)

**Q.** What about the IC50 ([3]; read-out: PI3Kbeta/IC50) of the same molecule?
**A.** 36 nM

**Q.** With CCOc1ccc(-c2ccc3ncc4c(c3c2)n(-c2ccc(N3CCNCC3)nc2OC)c(=O)n4C)cn1 [Example 9.1, 8-(6-Ethoxy-pyridin-3-yl)-1-(2-methoxy-6-piperazin-1-yl-pyridin-3-yl)-3-methyl-1,3-dihydro-imidazo[4,5-c]quinolin-2-one] as the molecule, how does the solubility thermodynamic [2] read?
**A.** 61 µg/mL (≈ 119 µM)

**Q.** What about the IC50 ([3]; read-out: PI3Kbeta/IC50) of the same molecule?
**A.** 267 nM

**Q.** With Cc1ncccc1-n1c(=O)n(C)c2cnc3ccc(-c4ccc(OCCCN(C)C)nc4)cc3c21 [Example 2.10, 8-[6-(3-Dimethylamino-propoxy)-pyridin-3-yl]-3-methyl-1-(2-methyl-pyridin-3-yl)-1,3-dihydro-imidazo[4,5-c]quinolin-2-one] as the molecule, how does the IC50 ([1]; read-out: mTOR/IC50) read?
**A.** 600 nM

**Q.** And the solubility thermodynamic [2]?
**A.** > 469 µg/mL

**Q.** For COc1ncccc1-n1c(=O)n(C)c2cnc3ccc(-c4ccc(C(N)=O)cc4)cc3c21 [Example 1.6, 4-[1-(2-Methoxy-pyridin-3-yl)-3-methyl-2-oxo-2,3-dihydro-1H-imidazo[4,5-c]quinolin-8-yl]-benzamide], which IC50 ([1]; read-out: mTOR/IC50) is on record?
**A.** 10 nM

**Q.** What about the solubility thermodynamic [2] of the same molecule?
**A.** 2 µg/mL (≈ 4.7 µM)

**Q.** And the IC50 ([3]; read-out: PI3Kbeta/IC50)?
**A.** 491 nM

**Q.** With Cc1nc(N2CCC2)ccc1-n1c(=O)n(C)c2cnc3ccc(-c4cncc(N5CCC5)c4)cc3c21 [Example 23.1, 1-(6-Azetidin-1-yl-2-methyl-pyridin-3-yl)-8-(5-azetidin-1-yl-pyridin-3-yl)-3-methyl-1,3-dihydro-imidazo[4,5-c]quinolin-2-one] as the molecule, how does the IC50 ([1]; read-out: EPK_mTOR/IC50) read?
**A.** 9 nM

**Q.** What about the solubility thermodynamic [2] of the same molecule?
**A.** 22 µg/mL (≈ 46.1 µM)

**Q.** What about the IC50 ([3]; read-out: EPK_PI3Kbeta/IC50) of the same molecule?
**A.** 1160 nM

**Q.** With Cn1c(=O)n(-c2cccnc2)c2c3cc(-c4ccc(CO)nc4)ccc3ncc21 [Example 5.1, 8-(6-Hydroxymethyl-pyridin-3-yl)-3-methyl-1-pyridin-3-yl-1,3-dihydro-imidazo[4,5-c]quinolin-2-one] as the molecule, how does the IC50 ([1]; read-out: mTOR/IC50) read?
**A.** 351 nM

**Q.** And the solubility thermodynamic [2]?
**A.** 15 µg/mL (≈ 39.1 µM)

**Q.** And the IC50 ([3]; read-out: PI3Kbeta/IC50)?
**A.** 801 nM

**Q.** With Cc1ncccc1-n1c(=O)n(C)c2cnc3ccc(-c4ccc(CO)nc4)cc3c21 [Example 2.6, 8-(6-Hydroxymethyl-pyridin-3-yl)-3-methyl-1-(2-methyl-pyridin-3-yl)-1,3-dihydro-imidazo[4,5-c]quinolin-2-one] as the molecule, how does the IC50 ([1]; read-out: mTOR/IC50) read?
**A.** 104 nM

**Q.** And the solubility thermodynamic [2]?
**A.** 125 µg/mL (≈ 315 µM)

**Q.** What about the IC50 ([3]; read-out: PI3Kbeta/IC50) of the same molecule?
**A.** 706 nM

**Q.** Which solubility thermodynamic [2] does the source give for Cc1cccnc1-n1c(=O)n(C)c2cnc3ccc(-c4ccc(CO)nc4)cc3c21 [Example 3.9, 8-(6-Hydroxymethyl-pyridin-3-yl)-3-methyl-1-(3-methyl-pyridin-2-yl)-1,3-dihydro-imidazo[4,5-c]quinolin-2-one] here?
**A.** > 397 µg/mL

**Q.** Which solubility thermodynamic [2] does the source give for CCOc1ccc(-c2ccc3ncc4c(c3c2)n(-c2ncccc2C)c(=O)n4C)cn1 [Example 3.6, 8-(6-Ethoxy-pyridin-3-yl)-3-methyl-1-(3-methyl-pyridin-2-yl)-1,3-dihydro-imidazo[4,5-c]quinolin-2-one] here?
**A.** 20 µg/mL (≈ 48.6 µM)

**Q.** Which IC50 ([1]; read-out: EPK_mTOR/IC50) does the source give for CNc1ccc(-c2ccc3ncc4c(c3c2)n(-c2ccc(N3CCC3)nc2C)c(=O)n4C)cn1 [Example 23.4, 1-(6-Azetidin-1-yl-2-methyl-pyridin-3-yl)-3-methyl-8-(6-methylamino-pyridin-3-yl)-1,3-dihydro-imidazo[4,5-c]quinolin-2-one] here?
**A.** 6 nM

**Q.** What about the solubility thermodynamic [2] of the same molecule?
**A.** 9 µg/mL (≈ 19.9 µM)

**Q.** And the IC50 ([3]; read-out: EPK_PI3Kbeta/IC50)?
**A.** 441 nM
